Experimental data: patent US20060127381A1, “Live bacterial preparation of bacillus coagulans for the treatment of ulcerative colitis, method for producing the same and use thereof” (priority 2004, published 2006)
Marks after values point to notes of the source that are not given here.

Tested on: experimental ulcerative colitis
Experiment: DSS modeling and treatment of experimental ulcerative colitis in rat
Assay type: in vivo, SD rat
Settings: SASP 0.02 g/ml i.g., twice a day for 21 days
Procedure: The producing method of live bacteria preparation of Bacillus coagulans for the treatment of ulcerative colitis comprises following steps: incubating Bacillus coagulans by fermentation; drying bacteria slurry after centrifugation to obtain live bacteria powder, which is then prepared as suitable dosage forms. Ulcerative colitis is characterized in that pathological change mostly occurs at rectum and sigmoid flexure, or throughout the whole colon. A microscopic examination of colon can show mucosal blooding, edema, erosion or superficial ulcertion on affected intestine with mucus and inflammatory exudate covered thereon. Bleeding, inflammatory cell infiltration, epithelial cell decreasing, crypt collapsing and distorting, abscess formation are also often found in microscopic examination. Chronic ulcer may heal to form scar or pseudopolyp. Experimental study is to administrate dextran sodium sulfate (DSS) to SD rat by i.g. and rectal injection to induce experimental ulcerative colitis model, and then subject the modeled rat to experimental treatment with a live bacterial tablet of Bacillus coagulans, whereby the treatment effect of tablet is evaluated. The use is to apply the live bacterial tablet of Bacillus coagulans to clinically treat patients suffering from ulcerative colitis, whereby the efficacy and safety of the live bacterial preparation for UC patients is evaluated.
60 rats were kept under a sterile environment before test. Normal intestinal flora was taken from stools in the rats' anuses and incubated. 10 rats were taken as normal control and other 50 rats as experimental group. According a modified UC rat modeling method (Xiaoping Wu etc., Chinese Journal of Digestion, Vol. 23(5):305, 2003), 3% dextran sodium sulfate (DSS) solution was i.g. administrated to rats with empty stomachs (1 ml/100 g), once a day for 7 days. At the last time, 1 ml/rat of DSS was additionally injected into recta through anuses. After 7 days, stools were taken for flora analysis. 10 rats were then sacrificed and colons were removed by laparocolectomy. The wet weights of colons were measured (g/100 g body weight). The colons was fixed with formaldehyde and stained with alcian blue solution (Sino-American Biotec). The point counts of ulcer and erosion parts were observed by naked eye. Areas (cm^2) of the largest stained blue points were measured with calipers. After the confirmation of UC formation, rats were divided into 4 groups, 10 rats per group. The rats were administrated i.g. with live bacteria tablet of Bacillus coagulans(BC) (10^7 cfU/ml, 10^6 cfU/ml), 0.02 g/ml salicylazosulfapyridine (SASP) and normal saline solution (NS), respectively, twice a day for 21 days, afterwhich the stools were taken for flora analysis. Thereafter, all of the rats were sacrificed. Colon specimens were treated according to above method and corresponding indicators were determined. In addition, intestinal tissue masses were sampled to prepare 5% homogenates, which were determined for their activities of myeloperoxidase (MPO) (U/g·wet slice) with myeloperoxidase test kit (Nanjing JianCheng Bioengineering Institute) by ultraviolet spectrometry (Beijing Technical Application Institute).
The intestinal flora was incubated and analyzed as follows. Fresh stools were extruded out from rats' anuses under sterile condition before or after modeling and after treatment, respectively. […]

## O=C(O)c1cc(/N=N/c2ccc(S(=O)(=O)Nc3ccccn3)cc2)ccc1O [SASP, salicylazosulfapyridine]
  Intestinal wet weight (g/100 g body weight): 0.54 ± 0.05**^Δ g/100 g body weight
  Ulcer or erosion points, Count of Points: 2.20 ± 0.79**^ΔΔ
  Ulcer or erosion points, area (cm^2): 0.22 ± 0.18**^Δ cm^2
DSS-modeled rats
  Body weight (g) After treatment: 264.00 ± 13.50 g
Intestinal tissue homogenate
  MPO activity (U/g wet weight): 0.20 ± 0.10**^ΔΔ U/g wet weight
